Experiments:
[1] = tested on: primary mouse hepatocytes; experiment: Inhibition of de novo lipid synthesis in primary hepatocytes, [1,2-14C]-sodium acetate tracer; format: cell-based; conditions: Hepatocyte, compound 12.5 μM, 4 h, [1,2-14C]-acetate, read-out: Lipid synthesis inhibition (%) (mean ± SD)
Description: Primary hepatic cell isolation and walling: the mouse liver was lavaged by calcium-free perfusate, then digested using collagenase and mouse primary hepatocytes were obtained by density gradient centrifugation, and were inoculated in 6-well plates at a density of 3×10^5/ml (0.2% gelatin was coated before inoculating). After inoculating, the cells were cultured and adhered for 6 h. The medium was changed to serum-free LG-DMEM (containing 2× double antibody) and starved the cells overnight.
Isotope tracing: the next day, the medium was switched to serum-free LG-DMEM containing 10 nM insulin and the corresponding concentration of compounds (1950 μL, 4 replicate wells per group); 0.1 μCi of [1,2-^14C]-acetate serum-free medium was added to each well, and the plates were then incubated for 4 h in the incubator.
Lipid saponification: Add 1.6 mL of ice PBS to each well for washing 3 times, shake the plate to dry and add 600 μL of 0.5 M KOH to each well to lysis for 1 h. Pipette 480 μL into a glass test tube with 400 μL of 20% KOH (methanol was used as solvent), shake and mix well, and then place it in a water bath at 95° C. to saponify for 3 h. The remaining lysate was used for the determination of the concentration of proteins. Add 400 μL of petroleum ether to each tube, pipette 5-6 times and centrifuge at 2500 rpm for 5 min, take 350 μL of the upper layer of the clear solution to the EP tube, and then add 400 μL of petroleum ether to repeat the extraction for 2 times (a total of 3 times). After complete transfer of the supernatant, 200 μL of water and 400 μL of 5N sulfuric acid were added to each tube for acidification, and the mixture was shaken and mixed. Add 400 μL of petroleum ether to each tube, pipette 5-6 times and centrifuge at 2500 rpm for 5 min, take 350 μL of the upper layer of the clear solution to the EP tube, then add 400 μL of petroleum ether and repeat the extraction for 2 times (a total of 3 times). Place in a fume hood and evaporate the petroleum ether overnight.
Isotope participation quantification: 1700 μL of scintillation solution was added to each tube and read.
Data processing and analysis: Firstly, the isotopic reference (R control, unit: CCPM/mg protein) of free fatty acids and cholesterol was calculated for the Control group of untreated mouse primary hepatocytes within 4 hours, which represented the basal synthesis. The percent inhibition of lipid synthesis was then calculated for each concentration group of the sample.

crab-eating monkeys = experiment: High-fat, high-sugar, high-cholesterol diet-induced NASH in crab-eating monkeys; format: in vivo, crab-eating monkey; conditions: 20 mg/kg, 1 time/day, 14 weeks, liver puncture
Description: Dosing regimen: 18 non-alcoholic steatohepatitis-eating crab monkeys, males, were divided into 2 groups (n=8-10), one group was set up as a model control group, and one group was set up as a drug administration group. The drug (20 mg/kg) was administered at a frequency of 1 time/day for 14 weeks while feeding a high-fat, high-sugar, high-cholesterol diet for 14 weeks.
Indicator tests: The body weights and food intake of the crab-eating monkeys were closely monitored during the administration period. After 14 weeks of compound administration, liver puncture was performed for pathologic analysis of NASH indicators.

[2] = Oral pharmacokinetics in ICR mice; format: in vivo, mouse
Description: Dosing regimen: 6 normal ICR mice, male, were divided into 2 groups (n=3), one group was orally given the positive control ETC-1002, and one group was orally given the tested compound A3, both administered at a dose of 30 mg/kg; blood was taken from the eye orbits at different time points before and after the administration of the drug, and the plasma drug concentration was detected.

[3] = male, mouse, ICR mice, oral, 30 mg/kg, plasma

## CC(C)(CCCC/C=C/CCCCCC(C)(C)C(=O)O)C(=O)O [Compound A3]
[1]
  inhibition at 12.5 µM: 71.2 ± 4.3%
crab-eating monkeys
  accumulation of hepatic lipids: significantly reduce
  activity score of non-alcoholic steatohepatopathy (NAS): significantly reduced
  occurrence of fibrosis: significantly reduce
  occurrence of inflammation: significantly reduce
[2]; [3]
  AUC(0-inf): 74200 ng·h/mL
  AUC(0-t): 63700 ng·h/mL
  Cmax: 13400 ng/mL
  half-life: 5.65 h
[2]; male, mouse, ICR mice, oral, 30 mg/kg, plasma, read-out: MRT0-∞
  MRT inf: 8.01 h
[2]; same oral dose
  plasma exposure relative to Bempedoic acid: more than 4 times

Source: patent publication US20250144127A1, “LONG-CHAIN COMPOUND AND USE THEREOF” (Burgeon Therapeutics Co., Ltd., priority 2021, published 2025)
